Source: paper PMC12388496, “Discovery of (E)-1,3-Diphenyl-2-Propen-1-One Derivatives as Potent and Orally Active NLRP3 Inflammasome Inhibitors for Colitis” (Molecules, 2025)

How the values were obtained:
[1] = MTT assay, HepaRG cytotoxicity; assay type: cell-based; details: human, HepaRG cells, n = 3
Description: HepaRG cells in the logarithmic growth phase (10^5 cells/mL), inoculate them into a 96-well plate, and culture overnight in a 37 °C, 5% CO2 incubator. Add compounds at different concentrations and continue culturing for 24 h. Add 20 μL of MTT solution, incubate for 4 h, discard the supernatant, and add DMSO to dissolve.

[2] = tested on: IL-1β secretion in BMDM cells (NLRP3 inflammasome); experiment: ELISA of IL-1β secretion in LPS/nigericin-treated BMDM cells; assay type: cell-based; details: Mus musculus; 20 µM; LPS/nigericin-treated BMDM cells; mean ± S.E.M. (n = 3); read-out: IL-1β Inhibition Rate (%)
Description: When L929 cells reach the logarithmic phase, collect the cell supernatant. Filter the supernatant using a 0.22 μm filter and store it at −20 °C for future use. The 7-week-old C57BL/6 mice were selected as the source of primary bone marrow macrophages. The mice were euthanized using the cervical dislocation method. The ends of the femurs were cut, and the bone marrow was flushed into a 15 mL centrifuge tube using a 5 mL syringe. Once all the bone marrow was collected, an appropriate amount of red blood cell lysis buffer was added to the centrifuge tube. The mixture was incubated for 3–5 min, with repeated pipetting to thoroughly lyse the red blood cells. The cells were then centrifuged and collected. Add 30–40% L929 cell supernatant or M-CSF stimulatory factor to the culture dish. Culture the cells in a cell incubator at 37 °C with 5% CO2. Observe the cell condition daily, and once most cells have adhered to the surface, proceed with subsequent experiments.
Inoculate 1.0 × 10^5 BMDMs cells per well into a 96 well plate and culture overnight. Stimulate the cells with lipopolysaccharide (LPS) at a concentration of 0.2 μg/mL for 3 h, then add different concentrations of the test compounds and incubate for 30 min. Finally, add Nigericin at a concentration of 10 μM to continue the induction for 30 min. Collect the cell supernatant and measure the IL-1β secretion level in the supernatant using an ELISA kit, following the instructions provided, and calculate the IC50 value based on the relevant calculations. To ensure the accuracy and reliability of the experimental results, all experiments were repeated three times, with each experiment performed independently.

## O=C(/C=C/c1cccc(O)c1)c1ccccc1 [Compound F4, (E)-3-(3-hydroxyphenyl)-1-phenylpropyl-2-en-1-one]
[1]
  IC50 at 24 h: > 50 µM
[2]
  inhibition at 20 µM: 25.6 ± 9.03%

## COc1cccc(C(=O)/C=C/c2cccc(O)c2)c1 [Compound F3, (E)-3-(3-hydroxyphenyl)-1-(3-methoxyphenyl)propyl-2-en-1-one]
[1]
  IC50 at 24 h: > 50 µM
[2]
  inhibition at 20 µM: 93.4 ± 2.98%

## O=C(/C=C/c1ccc(O)cc1)c1ccccc1 [Compound W1, (E)-3-(4-hydroxyphenyl)-1-phenylprop-2-en-1-one]
[1]
  IC50 at 24 h: > 50 µM
[2]
  inhibition at 20 µM: 17.8 ± 3.45%

## O=C(/C=C/c1ccc(O)cc1)c1cccc(F)c1 [Compound W10, (E)-1-(3-fluorophenyl)-3-(4-hydroxyphenyl)propyl-2-en-1-one]
[1]
  IC50 at 24 h: > 50 µM
[2]
  inhibition at 20 µM: 33.6 ± 3.21%

## COc1cccc(C(=O)/C=C/c2ccc(O)cc2)c1 [Compound W2, (E)-3-(4-hydroxyphenyl)-1-(3-methoxyphenyl)propyl-2-en-1-one]
[1]
  IC50 at 24 h: > 50 µM
[2]
  inhibition at 20 µM: 67 ± 1.23%

## O=C(/C=C/c1ccccc1O)c1ccc(Cl)cc1 [Compound F8, (E)-1-(4-chlorophenyl)-3-(2-hydroxyphenyl)propyl-2-en-1-one]
[1]
  IC50 at 24 h: > 50 µM
[2]
  inhibition at 20 µM: 45.9 ± 3.45%

## O=C(/C=C/c1ccccc1O)c1cccs1 [Compound F16, (E)-3-(2-hydroxyphenyl)-1-(thiophene-2-yl)propion-2-en-1-one]
[1]
  IC50 at 24 h: > 50 µM
[2]
  inhibition at 20 µM: 92.6 ± 3.23%

## O=C(/C=C/c1ccc(O)cc1)c1ccc(Cl)cc1 [Compound W7, (E)-1-(4-chlorophenyl)-3-(4-hydroxyphenyl)propyl-2-en-1-one]
[1]
  IC50 at 24 h: > 50 µM
[2]
  inhibition at 20 µM: 24.3 ± 3.67%

## O=C(/C=C/c1ccccc1O)c1ccccc1 [Compound F1]
[1]
  IC50 at 24 h: > 50 µM
[2]
  inhibition at 20 µM: 52.1 ± 3.72%

## O=C(/C=C/c1cccc(O)c1)c1cccc(F)c1 [Compound F13, (E)-1-(3-fluorophenyl)-3-(3-hydroxyphenyl)propyl-2-en-1-one]
[1]
  IC50 at 24 h: > 50 µM
[2]
  inhibition at 20 µM: 34 ± 8.74%

## COc1ccc(C(=O)/C=C/c2cccc(O)c2)cc1 [Compound F6, (E)-3-(3-hydroxyphenyl)-1-(4-methoxyphenyl)propyl-2-en-1-one]
[1]
  IC50 at 24 h: > 50 µM
[2]
  inhibition at 20 µM: 25.1 ± 2.84%

## O=C(/C=C/c1ccc(O)cc1)c1ccccc1Cl [Compound W5, (E)-1-(2-chlorophenyl)-3-(4-hydroxyphenyl)propion-2-en-1-one]
[1]
  IC50 at 24 h: > 50 µM
[2]
  inhibition at 20 µM: 51.7 ± 2.23%

## Cc1ccc(C(=O)/C=C/c2cccc(O)c2)cc1C [Compound F12, (E)-1-(3,4-dimethylphenyl)-3-(3-hydroxyphenyl)propyl-2-en-1-one]
[1]
  IC50 at 24 h: > 50 µM
[2]
  inhibition at 20 µM: 15.4 ± 4.13%

## O=C(/C=C/c1ccccc1O)c1cccc2ccccc12 [Compound F15, (E)-3-(2-hydroxyphenyl)-1-(naphthale-1-yl)propyl-2-en-1-one]
[1]
  IC50 at 24 h: > 50 µM
[2]
  inhibition at 20 µM: 91.7 ± 5.89%

## O=C(/C=C/c1ccc(O)cc1)c1cccc(Cl)c1 [Compound W3, (E)-1-(3-chlorophenyl)-3-(4-hydroxyphenyl)propyl-2-en-1-one]
[1]
  IC50 at 24 h: > 50 µM
[2]
  inhibition at 20 µM: 21.8 ± 9.56%

## O=C(/C=C/c1cccc(O)c1)c1ccc(Br)cc1 [Compound F10, (E)-1-(4-bromophenyl)-3-(3-hydroxyphenyl)propyl-2-en-1-one]
[1]
  IC50 at 24 h: > 50 µM
[2]
  inhibition at 20 µM: 24.2 ± 7.91%

## Cc1ccc(C(=O)/C=C/c2ccc(O)cc2)cc1C [Compound W9, (E)-1-(3,4-dimethylphenyl)-3-(4-hydroxyphenyl)propyl-2-en-1-one]
[1]
  IC50 at 24 h: > 50 µM
[2]
  inhibition at 20 µM: 10.3 ± 6.43%

## Cc1ccc(C(=O)/C=C/c2ccccc2O)c(C)c1 [Compound F11, (E)-1-(2,4-dimethylphenyl)-3-(2-hydroxyphenyl)propyl-2-en-1-one]
[1]
  IC50 at 24 h: > 50 µM
[2]
  inhibition at 20 µM: 88.7 ± 9.22%

## O=C(/C=C/c1ccc(O)cc1)c1cccc2ccccc12 [Compound W11, (E)-3-(4-hydroxyphenyl)-1-(naphthalene-1-yl)propyl-2-en-1-one]
[1]
  IC50 at 24 h: > 50 µM
[2]
  inhibition at 20 µM: 88.3 ± 7.01%

## CC(C)(O)c1coc(S(=O)(=O)NC(=O)Nc2c3c(cc4c2CCC4)CCC3)c1 [MCC950, reference compound]
[1]
  IC50 at 24 h: > 50 µM

## O=C(/C=C/c1ccccc1O)c1ccccc1Cl [Compound F7, (E)-1-(2-chlorophenyl)-3-(2-hydroxyphenyl)propyl-2-en-1-one]
[1]
  IC50 at 24 h: > 50 µM
[2]
  inhibition at 20 µM: 94.8 ± 3.29%

## COc1ccc(C(=O)/C=C/c2ccc(O)cc2)cc1 [Compound W4, (E)-3-(4-hydroxyphenyl)-1-(4-methoxyphenyl)propyl-2-en-1-one]
[1]
  IC50 at 24 h: > 50 µM
[2]
  inhibition at 20 µM: 6.89 ± 4.78%

## O=C(/C=C/c1ccccc1O)c1ccc(Br)cc1 [Compound F9, (E)-1-(4-bromophenyl)-3-(2-hydroxyphenyl)propyl-2-en-1-one]
[1]
  IC50 at 24 h: > 50 µM
[2]
  inhibition at 20 µM: 28.4 ± 5.76%

## Cc1ccc(C(=O)/C=C/c2ccc(O)cc2)c(C)c1 [Compound W8, (E)-1-(2,4-dimethylphenyl)-3-(4-hydroxyphenyl)propyl-2-en-1-one]
[1]
  IC50 at 24 h: > 50 µM
[2]
  inhibition at 20 µM: 88.9 ± 5.91%
